Experimental data published in patent publication US10654836B2, “Pyrimidine derivative, method for preparing same and use thereof in medicine” (Zhejiang Hisun Pharmaceutical Co., Ltd., priority 2016, dated 2020).

Experiments:
[1] = system: hepatocellular carcinoma tumor cell Huh7 xenografts; test: Growth inhibition of Huh7 xenografts in tumor-bearing BALB/c nude mice; type: in vivo; details: bid
Method: On day 0, Huh7 cells were cultured in DMEM medium containing 10% of fetal bovine serum, 100 U of penicillin, and 100 μg/mL of streptomycin. And cultured in an incubator of 37° C., 5% CO2.
Each mouse was inoculated subcutaneously in the right axilla with 150 μL of cell suspension (5.0×10^6 cells/mouse) under sterile conditions. On day 12 after inoculation, when the tumor grew to a volume of 200-300 mm^3, mice with similar tumor volume and good shape were selected (the shape was as single spherical as possible, no irregular shape or multiple tumors gathered together) and divided into 5 groups, each group had 9 mice.
(§1) Each group of animals was administrated (intraperitoneal injection (ip) or oral administration (po)) a test substance twice a day (bid) at a fix time per day according to the body weight of the animals. The first dose was administered on the day of grouping ([…]), and continued for 22 days, the body weight of the animals was recorded daily.
The formation of tumor in the inoculated part of each group of animals was observed. The long diameter (Y) and short diameter (X) of the tumor nodules were measured twice a week using vernier calipers and calculated according to the following formula: Volume of tumor nodules(V): V=(X^2Y)/2.
Evaluation index of antitumor activity: tumor growth inhibition rate TGI (%), relative tumor proliferation rate T/C (%).
The relative tumor volume (RTV) is calculated as: RTV=100×TVt/TVinitial
wherein, TVinitial is the tumor volume measured at the time of grouping administration; TVt is the tumor volume at each measurement during administration.
The calculation formula for the relative tumor proliferation rate (% T/C) is: % T/C=100%×(RTVT/RTVC)
wherein, RTVT represents RTV of the treatment group; RTVC represents RTV of the solvent control group.
wherein, TVt(T) represents the tumor volume at each measurement in the treatment group; TVinitial(T) represents the tumor volume of the treatment group at the time of grouping administration; TVt(C) represents the tumor volume at each measurement in the solvent control group; TVinitial(C) represents the tumor volume of the solvent control group at the time of grouping administration.
wherein, WC represents the tumor weight of the control group; WT represents the tumor weight of the treatment group.

[2] = system: hepatocellular carcinoma tumor cells Huh7; test: Huh7 tumor cell proliferation inhibition (CCK-8); type: cell-based, human; details: 72 hours culture
Method: For the FGFR4 subtype, hepatocellular carcinoma tumor cells Huh7 (purchased from the Cell Resource Center of Shanghai Institutes for Biological Sciences, Chinese Academy of Sciences) were used to determine the inhibition against the activity of hepatocellular carcinoma tumor cells. Huh7 cells were cultured in a DMEM medium containing 10% of fetal bovine serum, 100 U of penicillin and 100 μg/mL of streptomycin. Cultured in an incubator of 37° C., 5% CO2. Hepatocellular carcinoma tumor cell activity was measured by using a kit of Cell Counting Kit-8 (Dojindo, Dojindo Molecular Technologies, Inc).
The experimental method was carried out according to the steps of the kit instructions, and is briefly described as follows: the test compound was first dissolved in DMSO to prepare a stock solution, and then gradiently diluted with the corresponding medium of the cells to prepare a test sample, and the final concentration of the compound was in the range of 30 μM to 0.01 nM. Tumor cells in the logarithmic phase were seeded into 96-well cell culture plates at a suitable density, cultured in an incubator of 37° C., 5% CO2 overnight, then test compound samples were added and continued to culture the cells for 72 hours.

[3] = Body weight and weight loss rate of Huh7 tumor-bearing BALB/c nude mice during administration; type: in vivo; details: 25 mg/kg IP, bid
Method: as §1
The calculation formula for the weight loss rate of animals is (see FIG. 3 for the results): Weight loss rate of animals=100%×(BWinitial−BWt)/BWinitial
wherein, BWt represents the body weight of the animal at each measurement during administration; BWinitial represents the body weight of the animal at the time of grouping administration.

[4] = 25 mg/kg IP, end of the experiment

C=CC(=O)Nc1cc(N2CCN(CC)C3(CC3)C2)ccc1Nc1cc(N(C)C(=O)Nc2c(Cl)c(OC)cc(OC)c2Cl)ncn1 [Example 5, N-(2-((6-(3-(2,6-Dichloro-3,5-dimethoxyphenyl)-1-methylureido)pyrimidin-4-yl)amino)-5-(4-ethyl-4,7-diazaspiro[2.5]octan-7-yl)phenyl)acrylamide]
Tumor weight (g) Mean ± standard error [1, 4]: 0.8393 ± 0.0602 g | Tumor weight (g) Mean ± standard error ([1]; 50 mg/kg IP, end of the experiment): 0.6473 ± 0.0597 g | Tumor weight (g) Mean ± standard error ([1]; 300 mg/kg PO, end of the experiment): 0.0562 ± 0.0069 g

C=CC(=O)Nc1cc(N2CCN(CC)CC2)ccc1Nc1cc(N(C)C(=O)Nc2c(Cl)c(OC)cc(OC)c2Cl)ncn1 [Example 108 of WO2015057938, reference compound]
IC50 [2]: 18 nM | Tumor growth inhibition rate (TGI %) ([1]; 25 mg/kg IP, Day 16 after inoculation): 34% | Tumor growth inhibition rate (TGI %) ([1]; 25 mg/kg IP, Day 20 after inoculation): 21% | Tumor growth inhibition rate (TGI %) ([1]; 25 mg/kg IP, Day 23 after inoculation): 21% | Tumor growth inhibition rate (TGI %) ([1]; 25 mg/kg IP, Day 27 after inoculation): 29% | Tumor growth inhibition rate (TGI %) ([1]; 25 mg/kg IP, Day 30 after inoculation): 24% | Tumor growth inhibition rate (TGI %) ([1]; 25 mg/kg IP, Day 34 after inoculation): 16% | Tumor weight (g) Mean ± standard error [1, 4]: 0.9106 ± 0.0583 g | Tumor weight inhibition rate (%) [1, 4]: 2.2% | Animal body weight ± standard error ([3]; Day 13 after inoculation): 18.0 ± 0.3 g | weight loss rate (%) ([3]; Day 13 after inoculation): 0% | Animal body weight ± standard error ([3]; Day 16 after inoculation): 18.1 ± 0.3 g | weight loss rate (%) ([3]; Day 16 after inoculation): −0.62% | Animal body weight ± standard error ([3]; Day 20 after inoculation): 19.2 ± 0.4 g | weight loss rate (%) ([3]; Day 20 after inoculation): −6.7% | Animal body weight ± standard error ([3]; Day 23 after inoculation): 18.3 ± 0.2 g | weight loss rate (%) ([3]; Day 23 after inoculation): −2.0% | Animal body weight ± standard error ([3]; Day 27 after inoculation): 18.4 ± 0.3 g | weight loss rate (%) ([3]; Day 27 after inoculation): −2.7% | Animal body weight ± standard error ([3]; Day 30 after inoculation): 18.7 ± 0.2 g | weight loss rate (%) ([3]; Day 30 after inoculation): −4.2% | Animal body weight ± standard error ([3]; Day 34 after inoculation): 18.9 ± 0.3 g | weight loss rate (%) ([3]; Day 34 after inoculation): −5.0%
